Assay type in all cases: in vivo, C57BL/6J male mice
Assay [1] in a line: Weight change of naive HFD-consuming mice upon metabolite administration. Conditions: naive HFD-consuming 10-week-old C57bl male mice. The source says: Mice. Eight-weeks old C57BL/6J male mice were purchased from Harlan. All mice were maintained in the animal facility of the Weizmann Institute and acclimatized for two weeks before the initiation of experiments. Mice were fed on normal chow (NC) or switched to a high-fat diet (HFD, D12492, 60% kcal from fat, Research Diets)/ choline-deficient diet (CDD, rodent diet with 60 kcal % fat without added Choline) three days prior to the experimental starting point. […] For all experiments, the mice were assigned to each group based on their weight in order to create weight-matched groups and eliminate weight differences at the beginning of the experiments. […] Lean and fat mass was determined by nuclear magnetic resonance (NMR) using Bruker minispec LF50.mq7.5 MHZ live mice analyzer.
(§1) Data extraction and compound identification- raw data was extracted, peak-identified and QC processed using Metabolon's hardware and software. […] The cut was then closed with sterile surgical clips and the mice were carefully monitored for any signs of stress, bleeding, pain, or abnormal behavior. […]
Importantly, the predicted levels of biosynthetic enzymes (PICRUSTt2, P542-PWY) of the choline to betaine pathway and the pathway's measured intermediary levels (Choline to Betaine) were altered in actively smoking mice (FIG. 1D). […]

The nature of assay [2]: Smoking cessation-associated weight gain (SCWG) model in mice.
Text: Mice. Eight-weeks old C57BL/6J male mice were purchased from Harlan. All mice were maintained in the animal facility of the Weizmann Institute and acclimatized for two weeks before the initiation of experiments. Mice were fed on normal chow (NC) or switched to a high-fat diet (HFD, D12492, 60% kcal from fat, Research Diets)/ choline-deficient diet (CDD, rodent diet with 60 kcal % fat without added Choline) three days prior to the experimental starting point. […] For all experiments, the mice were assigned to each group based on their weight in order to create weight-matched groups and eliminate weight differences at the beginning of the experiments. Two weeks before experimental starting point, antibiotic-treated groups were given a combination of vancomycin (0.5 g/l), ampicillin (1 g/l), neomycin (1 g/l), and metronidazole (1 g/l) ad libitum in their drinking water, referred to as 4-way abx. […] Lean and fat mass was determined by nuclear magnetic resonance (NMR) using Bruker minispec LF50.mq7.5 MHZ live mice analyzer.
Cigarette Smoke Exposure. […] Smoke levels were measured at least twice daily. […]
as §1

Assay [3] in a line: Bomb calorimetry of stool (residual caloric content). Conditions: three weeks into DMG or PBS administration; inversely correlates with intestinal energy harvest. As to the method:
Bomb calorimetry. Mice were transferred to a clean single housed cage, fecal samples collected and stored at −80° C. Before use, samples were dried with FreeZone 4.5-liter cascade benchtop freeze dry system (Labconco) for 24 hours. Gross energy content was measured using a water handling system (6510) and a bomb calorimeter (6200) by Parr Instrument Co. The calorimeter energy equivalent factor was determined using benzoic acid standards.

In the case of `CN(C)CC(=O)O` [DMG, N,N-Dimethylglycine], in assay [1] (osmotic pumps, 100 mg/kg/day, 21 days, vs vehicle (PBS)), the “Weight change upon DMG administration” value is recorded as “significant weight gain”. The “SCWG upon DMG supplementation” value in assay [2] (antibiotics-treated smoking-cessation HFD-fed mice, DMG via osmotic pumps started prior to cessation, vs vehicle) is listed as “restored SCWG”. Also, in assay [3], the “Residual caloric content in stool” value is “lower residual calories”.

For `CC(=O)NCC(=O)O` [ACG, N-acetylglycine], the “Weight gain under ACG consumption” value in assay [1] (7500 mg N-Acetylglycine/kg diet, vs HFD-fed control) was “significantly lower weight gain”. Moreover, the “SCWG upon ACG supplementation” value in assay [2] (non-antibiotics-treated smoking-cessation mice, HFD-ACG vs HFD) is “prevented SCWG”.
